Measured values from PubChem BioAssay AID2060606 (Molecular Pharmacology Branch, DTP, NCI, 2025).
Where “and” joins values, the source holds several entries; their conditions need not be identical. Equal values may be shown once. Blank lines part the entries; values can stand above or below the compound they belong to.

System: 922993-354-T-J3-PDC complex spheroids, viability, % test/control
Assay: Anticancer human tumor 922993-354-T-J3-PDC patient-derived endometrial carcinoma cell line growth inhibition [CLK]
Details: for viability, T/C: stronger effect = lower value
Text: A high-throughput screen of multi-cell type tumor spheroids was designed to identify active combinations of […] and targeted small molecules. Complex spheroids include a stromal component modeled by human endothelial cells (HUVEC) and fibroblasts modeled by human mesenchymal stem cells (MSCs). The concentration ranges selected for each drug and investigational agent were based upon clinically achievable concentrations if the clinical Cmax of the agent was known.
Compounds. The drugs and investigational agents: cirtuvivint (SM08502; NSC835563), CC-671 (NSC850746), vemurafenib (NSC761431), tapotoclax (NSC804041), sotorasib (NSC818433), adagrasib (NSC831453), MRTX-1133 (NSC836407), BAY2416964 (NSC825713), copanlisib (NSC816437), inavolisib (NSC800729), abemaciclib (NSC768073), osimertinib (NSC779217), entinostat (NSC756642), eltanexor (KPT-8602, NSC794443), venetoclax (NSC766270), ceralasertib (NSC777638), bortezomib (NSC756655), olaparib (NSC753686), talazoparib (NSC767125), alisertib (NSC759677), peposertib (NSC802822), gemcitabine (NSC613327), 5-fluorouracil (NSC19893), SN-38 (NSC673596), oxaliplatin (NSC266046), paclitaxel (NSC125973), and doxorubicin (NSC123127), were obtained from the National Cancer Institute (NCI) Developmental Therapeutics Program Chemical Repository. The FDA-approved anticancer drug set is available from the Developmental Therapeutics Program at https://dtp.cancer.gov/organization/dscb/obtaining/available plates.htm. […] The stock solutions were prepared in dimethyl sulfoxide (DMSO, Sigma-Aldrich, St. Louis, MO, cat. D2650), except for the platinum complexes which were prepared in saline (Quality Biological, Gaithersburg, MD, cat. 114-055-101), at 800-fold the tested concentration and stored at -70 degrees C prior to their use. All drugs and investigational agents were tested over a range starting from a high concentration at or near the clinical Cmax and decreasing in half-log increments. If the clinical Cmax for an agent had not been determined, the highest concentration tested was 10 microM.
Cell Culture. All cells were maintained in an incubator at 37 degrees C and 5% CO2 with 95% humidity. The PDC lines were cultured according to standard operating procedures established by the NCI PDMR. Briefly, all PDCs were thawed and cultured in Matrigel-coated flasks prepared with a working solution of 1X Ham's F-12 nutrient mix, without supplementation (Invitrogen, Waltham, MA, cat. 11765054), 100 U/mL penicillin-streptomycin (Invitrogen, cat. 15140122), and 2.5% Matrigel (Corning Inc., Corning, NY, cat. 354248) for the first three passages. The 947758-054-R-J2-PDC line was cultured in 6B/Colon 1A media, which includes advanced DMEM/F-12 (Thermo Fisher Scientific, cat. 12634028), 10 mM HEPES (Thermo Fisher Scientific, cat. 15630080), 1X GlutaMAX supplement (Thermo Fisher Scientific, cat. 35050061), 0.1 mg/mL primocin (InvivoGen, cat. ant-pm-2), 10% defined fetal bovine serum, heat inactivated (HyClone Laboratories Inc., cat. SH30070.03HI), 1.25 mM N-Acetyl-L-cysteine (Sigma-Aldrich, cat. A9165), 10 mM nicotinamide (Sigma-Aldrich, cat. N0636), 1X B-27 supplement (Thermo Fisher Scientific, cat. 17504044), 1X N-2 supplement (Thermo Fisher Scientific, cat. 17502048), and 10 microM Y-27632 dihydrochloride (Tocris Bioscience, cat. 1254). The 876862-298-R-J1-PDC was cultured in 6E media, which includes all 6B/Colon 1A media components plus 50% L-WRN conditioned media (ATCC, cat. CRL-3276), 50 ng/mL recombinant human EGF recombinant protein (hEGF; Thermo Fisher Scientific, cat. PHG0311), 10 ng/mL recombinant human fibroblast growth factor 10 (hGFG-10; PeproTech, cat. 100-26), 1 ng/mL recombinant human fibroblast growth factor 2 (hFGF-2; PeproTech, cat. 100-18B), and 1 µM prostaglandin E2 (PGE2; Tocris, cat. 2296). The 227483-062-R1-J1-PDC line was cultured in Panc media, containing all 6E components except hFGF-2, with the addition of 500 nM SB-431542 (Selleckchem, cat. S1067) and 10 nM gastrin (Tocris, cat. 3006). […]
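Also: spheroids exposed to the agents for 7 days before readout.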

IC50 (compound alone, run of 09/18/2023): 266 nM [middle of 12 runs]
Compound: CN1CCN(c2cc(C(=O)Nc3cc4cc(-c5cnn(C)c5)ccc4cn3)ccn2)CC1
viability, T/C (compound 0.1 µM): 97.6% [middle of 12 runs]
viability, T/C (compound 1 µM): 1.97% [middle of 12 runs]
viability, T/C (compound 3.16 µM): 0.81% [middle of 12 runs]
viability, T/C (compound 10 µM): 0.24% [middle of 12 runs]

IC50 (curve of compound): > 10000 nM
Compound: COc1ccc([C@@H](O)c2cc(-c3ncnc4cc(N5CCOCC5)ccc34)c(F)cc2Cl)nn1
viability, T/C (compound 0.0316 µM): 87.2% and 87.1%
viability, T/C (compound 0.1 µM): 104% and 94.9%
viability, T/C (compound 0.316 µM): 87.7% and 98.9%
viability, T/C (compound 1 µM): 113% and 98.2%
viability, T/C (compound 3.16 µM): 85.8% and 117%
viability, T/C (compound 10 µM): 82.8% and 89.9%

IC50 (curve of compound): 1910 nM and 2330 nM
Compound: COc1cccc2c1C(=O)c1c(O)c3c(c(O)c1C2=O)CC(O)(C(=O)CO)CC3OC1CC(N)C(O)C(C)O1 (stereo unspecified)
viability, T/C (compound 0.0316 µM): 92.5% and 100%
viability, T/C (compound 0.1 µM): 97.2% and 86%
viability, T/C (compound 0.316 µM): 91.5% and 102%
viability, T/C (compound 1 µM): 63.7% and 75.1%
viability, T/C (compound 3.16 µM): 38.8% and 41.3%
viability, T/C (compound 10 µM): 13.7% and 21.8%

Compound: C=CC(=O)N1CCN(c2nc(=O)n(-c3c(C)ccnc3C(C)C)c3nc(-c4c(O)cccc4F)c(F)cc23)C(C)C1 (stereo unspecified) + CN1CCN(c2cc(C(=O)Nc3cc4cc(-c5cnn(C)c5)ccc4cn3)ccn2)CC1
IC50 (curve of first compound, second compound 0.0316 µM): > 10000 nM
IC50 (curve of first compound, second compound 0.1 µM): > 10000 nM
IC50 (curve of first compound, second compound 0.316 µM): 43.3 nM
IC50 (curve of first compound, second compound 1 µM): < 31.6 nM
IC50 (curve of first compound, second compound 3.16 µM): < 31.6 nM
IC50 (curve of first compound, second compound 10 µM): < 31.6 nM
viability, T/C (second compound 0.0316 µM, first compound 0.0316 µM): 121%
viability, T/C (second compound 0.0316 µM, first compound 0.1 µM): 123%
viability, T/C (second compound 0.0316 µM, first compound 0.316 µM): 132%
viability, T/C (second compound 0.0316 µM, first compound 1 µM): 116%
viability, T/C (second compound 0.0316 µM, first compound 3.16 µM): 112%
viability, T/C (second compound 0.0316 µM, first compound 10 µM): 112%
viability, T/C (second compound 0.1 µM, first compound 0.0316 µM): 105%
viability, T/C (second compound 0.1 µM, first compound 0.1 µM): 98.6%
viability, T/C (second compound 0.1 µM, first compound 0.316 µM): 114%
viability, T/C (second compound 0.1 µM, first compound 1 µM): 91.6%
viability, T/C (second compound 0.1 µM, first compound 3.16 µM): 106%
viability, T/C (second compound 0.1 µM, first compound 10 µM): 90.1%
viability, T/C (second compound 0.316 µM, first compound 0.0316 µM): 50.9%
viability, T/C (second compound 0.316 µM, first compound 0.1 µM): 48.5%
viability, T/C (second compound 0.316 µM, first compound 0.316 µM): 43.5%
viability, T/C (second compound 0.316 µM, first compound 1 µM): 37.8%
viability, T/C (second compound 0.316 µM, first compound 3.16 µM): 41.4%
viability, T/C (second compound 0.316 µM, first compound 10 µM): 47.4%
viability, T/C (second compound 1 µM, first compound 0.0316 µM): 0.19%
viability, T/C (second compound 1 µM, first compound 0.1 µM): 0.68%
viability, T/C (second compound 1 µM, first compound 0.316 µM): 0.16%
viability, T/C (second compound 1 µM, first compound 1 µM): 0.93%
viability, T/C (second compound 1 µM, first compound 3.16 µM): 0.13%
viability, T/C (second compound 1 µM, first compound 10 µM): 0.12%
viability, T/C (second compound 3.16 µM, first compound 0.0316 µM): 0.13%
viability, T/C (second compound 3.16 µM, first compound 0.1 µM): 0.17%
viability, T/C (second compound 3.16 µM, first compound 0.316 µM): 1.53%
viability, T/C (second compound 3.16 µM, first compound 1 µM): 0.1%
viability, T/C (second compound 3.16 µM, first compound 3.16 µM): 0.14%
viability, T/C (second compound 3.16 µM, first compound 10 µM): 1.14%
viability, T/C (second compound 10 µM, first compound 0.0316 µM): 0.16%
viability, T/C (second compound 10 µM, first compound 0.1 µM): 0.18%
viability, T/C (second compound 10 µM, first compound 0.316 µM): 0.17%
viability, T/C (second compound 10 µM, first compound 1 µM): 0.15%
viability, T/C (second compound 10 µM, first compound 3.16 µM): 0.79%
viability, T/C (second compound 10 µM, first compound 10 µM): 0.2%
